The text below walks through data of paper PMC7822176, “Pursuing the Complexity of Alzheimer’s Disease: Discovery of Fluoren-9-Amines as Selective Butyrylcholinesterase Inhibitors and N-Methyl-D-Aspartate Receptor Antagonists” (Biomolecules, 2020).

The nature of one series: in vitro. As to conditions: human. The procedure: (§1) The D3 assay evaluates the ability of compounds to diffuse from the donor compartment through the D3/hCMEC cell membrane into the acceptor compartment. The D3 cells were seeded on a PET membrane (area 1.12 cm^2) with 3-µm pores of the 12-well plates with 12-mm inserts. […] The donor solution (750 µL) was added to the donor compartment (insert), and the same volume of Opti-MEM was added into the acceptor. The concentration of the drug in both compartments was measured by UV-VIS spectrophotometry in 5, 15, 30, and 60 min of incubation in triplicates. The apparent permeability coefficient (Papp) was calculated from the concentration ratios. Tightness of the D3 monolayer was conducted by the fluorescein isothiocyanate (FITC) test after each experiment. […] (1) Papp= dC/dt × Vr/A × C0 • A: area of the well/cell monolayer, • dC/dt: amount in the receiver compartment in given time, • Vr: volume of the receiver compartment, and • C0: the initial concentration of tested compounds.

The subject of the next series is hCMEC/D3 cell monolayer. Nature of the series: in vitro. As to the method: as §1
The target in the next series is T1, hBChE (Homo sapiens, UniProt P06276).
T1 construct: made in house
In words: biochemical. The series is classed as biochemical. As to the method:
The human recombinant BChE and AChE were prepared at the Department of Toxicology and Military Pharmacy (Faculty of Military Health Sciences, Hradec Kralove, Czech Republic). 5,5′-dithiobis(2-nitrobenzoic acid) (Ellman’s reagent, DTNB), phosphate buffer (PB, pH 7.4), acetylthiocholine (ATC), and butyrylthiocholine (BTC) were purchased from Sigma-Aldrich, Prague, Czech Republic. For measuring purposes, polystyrene Nunc 96-well microplates with a flat bottom shape (Thermo Fisher Scientific, Waltham, MA, USA) were utilized. All the assays were carried out in 0.1-M KH2PO4/K2HPO4 buffer, pH 7.4. Enzyme solutions were prepared at 2.0 units/mL in 2-mL aliquots. […] Tested compounds were preincubated for 5 min. The reaction was started by the immediate addition of 20 µL of the substrate. […] Each concentration was assayed in triplicate. Software GraphPad Prism 5 (San Diego, CA, USA) was used for the statistical data evaluation.

The target of another series is T2, GluN1/GluN2A receptors (Homo sapiens, UniProt Q05586+Q12879).
T2 construct: expressed in transfected cells; host or cells: HEK293
In words: cell-based. The conditions noted are these: for inhibition at 10 µM: HEK293, read-out: RI (%) ± SEM GluN1/GluN2A. As to the method:
(§2) The cells grown in a 24-well plate were put in Opti-MEM I media containing a mixture of 0.9 µL of MATra-A Reagent (IBA) and 900 ng of DNA vectors carrying the human versions of the GluN1-1a (GluN1), GluN2A, or GluN2B subunits and green fluorescent protein (GFP; all vectors were added in equal ratio). The cells were placed on a strong magnet plate for 30 min and then trypsinized; resuspended in Opti-MEM I containing 1% FBS, 20-mM MgCl2, and 3-mM kynurenic acid (to inhibit the NMDAR-induced excitotoxicity); and plated on poly-L-lysine-coated glass coverslips. The electrophysiological experiments were executed 24–48 h after transfection.
(§3) Whole-cell patch-clamp recordings were conducted at room temperature on the GFP-positive HEK293 cells using an Axopatch 200B amplifier (Molecular Devices, San Jose, CA, USA); the series resistance compensation was >80% for all cells. […] The WAS02 application system, which can reach the solution exchange time around the recorded cell of 10–20 ms, was used to apply the extracellular solution (ECS).

Another series has as its target T3, GluN1/GluN2B receptors (Homo sapiens, UniProt Q05586+Q13224).
T3 construct: expressed in transfected cells; host or cells: HEK293
Nature of the series: cell-based. The conditions noted are these: for inhibition at 10 µM: HEK293, read-out: RI (%) ± SEM GluN1/GluN2B. The procedure: as §2, §3

Series [1] is described as follows: MTT cell viability assay, CHO-K1. As to conditions: Chinese hamster, CHO-K1 cells, 24 h exposure, mean of three independent measurements, read-out: IC50 ± SEM CHO-K1 cell viability. The series is classed as cell-based. The procedure: (§4) Standard MTT assay (3-(4,5-dimethylthiazol-2-yl)-2,5-diphenyltetrazolium bromide; Sigma Aldrich, Prague, Czech Republic) was used according to the manufacturer’s protocols on the CHO-K1 (Chinese hamster ovary, ECACC, Salisbury, UK) and hCMEC/D3 (Sigma Aldrich, St. Louis, MO, USA). The cells were cultured according to recommended conditions and seeded in a density of 8000 cells per well, as described previously. […] CHO-K1 cells were exposed to serially diluted tested compounds for 24 h. Then, the medium was replaced by a fresh medium containing 0.5 mg/mL of MTT, and the cells were allowed to produce formazan for another approximately 3 h under surveillance. Thereafter, the medium with MTT was removed, and crystals of formazan were dissolved in DMSO (100 µL/well; PENTA s.r.o., Prague, Czech Republic). Cell viability was assessed spectrophotometrically by the amount of formazan produced. The absorbance was measured at 570 nm with a 650-nm reference wavelength on Synergy HT (BioTek, Winooski, VT, USA). The IC50 value (half-maximal inhibitory concentration) was calculated from the control-subtracted triplicates using nonlinear regression (four parameters) by GraphPad Prism 7.03 software (GraphPad Software Inc., San Diego, CA, USA) for the CHO-K1 cell line, and for hCMEC/D3 cells, the cell viability was expressed as the % relative to the untreated control. Final IC50 and SEM (standard error of the mean) values were obtained as a mean of three independent measurements.

Series [2] can be described thus: MTT cell viability test, hCMEC/D3. In kind it is cell-based. The conditions noted are these: human, hCMEC/D3 cells, read-out: % viable cells hCMEC/D3. As to the method: as §4, with “The IC50 value (half-maximal inhibitory concentration) was calculated from the control-subtracted triplicates using nonlinear regression (four parameters) by GraphPad Prism 7.03 software (GraphPad Software Inc., San Diego, CA, USA) for the CHO-K1 cell line, and for hCMEC/D3 cells, the cell viability was expressed as the % relative to the untreated control.” left out
In general terms: Tetrazolium dyes change colour on reduction, which living cells bring about.

Where [3] appears, read: final prediction from Papp correlated to reference drugs.
[4] abbreviates: mean of at least three experiments, read-out: IC50 ± SEM hBChE.

Structures can show the parent of a compound that is named as a salt. Where two headings read alike, the source gives them in different places.

T1 sequence (P06276 29-602): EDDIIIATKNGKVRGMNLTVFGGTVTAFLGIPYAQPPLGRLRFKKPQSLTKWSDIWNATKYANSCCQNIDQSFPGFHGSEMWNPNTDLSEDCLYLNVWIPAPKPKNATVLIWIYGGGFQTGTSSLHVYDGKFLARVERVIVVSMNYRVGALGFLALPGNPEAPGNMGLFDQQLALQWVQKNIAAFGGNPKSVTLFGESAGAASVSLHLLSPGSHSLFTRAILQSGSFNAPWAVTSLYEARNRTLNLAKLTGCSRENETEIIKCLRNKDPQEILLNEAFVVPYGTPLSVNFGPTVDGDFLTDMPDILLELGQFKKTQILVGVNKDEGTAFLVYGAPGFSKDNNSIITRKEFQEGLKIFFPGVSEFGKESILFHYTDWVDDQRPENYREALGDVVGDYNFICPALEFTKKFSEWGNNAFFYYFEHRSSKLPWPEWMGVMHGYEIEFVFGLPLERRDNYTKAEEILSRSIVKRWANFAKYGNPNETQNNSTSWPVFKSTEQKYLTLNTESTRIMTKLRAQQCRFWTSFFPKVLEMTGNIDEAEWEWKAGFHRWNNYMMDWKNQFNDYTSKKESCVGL
T2 sequence (Q12879 23-1464, other chains not shown): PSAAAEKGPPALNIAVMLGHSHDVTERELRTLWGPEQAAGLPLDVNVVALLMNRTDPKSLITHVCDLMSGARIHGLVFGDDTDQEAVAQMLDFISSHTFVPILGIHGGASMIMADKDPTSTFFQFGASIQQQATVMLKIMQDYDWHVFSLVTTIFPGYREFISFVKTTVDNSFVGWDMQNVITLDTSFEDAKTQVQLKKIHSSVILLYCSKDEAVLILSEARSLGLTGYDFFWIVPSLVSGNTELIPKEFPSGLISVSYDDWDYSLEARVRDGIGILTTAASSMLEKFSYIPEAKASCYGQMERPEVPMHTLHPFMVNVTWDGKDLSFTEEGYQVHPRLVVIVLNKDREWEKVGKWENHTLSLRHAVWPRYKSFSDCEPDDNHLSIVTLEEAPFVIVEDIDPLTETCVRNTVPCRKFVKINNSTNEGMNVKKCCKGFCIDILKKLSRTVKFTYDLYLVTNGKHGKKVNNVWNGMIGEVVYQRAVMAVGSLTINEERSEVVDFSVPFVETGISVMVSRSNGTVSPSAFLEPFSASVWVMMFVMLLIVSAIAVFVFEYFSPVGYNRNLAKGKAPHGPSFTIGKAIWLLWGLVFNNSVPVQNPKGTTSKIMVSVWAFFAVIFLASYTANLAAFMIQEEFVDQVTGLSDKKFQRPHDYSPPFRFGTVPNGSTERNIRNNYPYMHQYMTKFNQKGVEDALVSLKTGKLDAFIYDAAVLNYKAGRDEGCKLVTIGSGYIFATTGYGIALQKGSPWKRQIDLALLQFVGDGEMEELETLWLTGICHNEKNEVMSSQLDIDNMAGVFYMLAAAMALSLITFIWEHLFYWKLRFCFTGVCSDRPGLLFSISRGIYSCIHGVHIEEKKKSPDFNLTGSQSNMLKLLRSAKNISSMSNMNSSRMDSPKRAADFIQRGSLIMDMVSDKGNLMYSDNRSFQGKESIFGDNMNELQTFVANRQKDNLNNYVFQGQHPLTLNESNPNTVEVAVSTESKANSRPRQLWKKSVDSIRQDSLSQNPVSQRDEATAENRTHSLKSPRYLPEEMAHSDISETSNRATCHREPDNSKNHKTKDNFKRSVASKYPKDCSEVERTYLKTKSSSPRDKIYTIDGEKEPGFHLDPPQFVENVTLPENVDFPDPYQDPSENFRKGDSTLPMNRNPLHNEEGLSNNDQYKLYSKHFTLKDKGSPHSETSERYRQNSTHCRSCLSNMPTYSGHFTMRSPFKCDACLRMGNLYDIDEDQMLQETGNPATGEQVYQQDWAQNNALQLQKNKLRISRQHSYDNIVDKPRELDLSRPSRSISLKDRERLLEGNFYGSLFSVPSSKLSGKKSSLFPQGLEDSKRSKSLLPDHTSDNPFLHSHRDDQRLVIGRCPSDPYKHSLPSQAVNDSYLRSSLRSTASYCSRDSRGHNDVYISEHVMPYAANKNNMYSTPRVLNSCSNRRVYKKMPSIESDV
T3 sequence (Q13224 27-1484, other chains not shown): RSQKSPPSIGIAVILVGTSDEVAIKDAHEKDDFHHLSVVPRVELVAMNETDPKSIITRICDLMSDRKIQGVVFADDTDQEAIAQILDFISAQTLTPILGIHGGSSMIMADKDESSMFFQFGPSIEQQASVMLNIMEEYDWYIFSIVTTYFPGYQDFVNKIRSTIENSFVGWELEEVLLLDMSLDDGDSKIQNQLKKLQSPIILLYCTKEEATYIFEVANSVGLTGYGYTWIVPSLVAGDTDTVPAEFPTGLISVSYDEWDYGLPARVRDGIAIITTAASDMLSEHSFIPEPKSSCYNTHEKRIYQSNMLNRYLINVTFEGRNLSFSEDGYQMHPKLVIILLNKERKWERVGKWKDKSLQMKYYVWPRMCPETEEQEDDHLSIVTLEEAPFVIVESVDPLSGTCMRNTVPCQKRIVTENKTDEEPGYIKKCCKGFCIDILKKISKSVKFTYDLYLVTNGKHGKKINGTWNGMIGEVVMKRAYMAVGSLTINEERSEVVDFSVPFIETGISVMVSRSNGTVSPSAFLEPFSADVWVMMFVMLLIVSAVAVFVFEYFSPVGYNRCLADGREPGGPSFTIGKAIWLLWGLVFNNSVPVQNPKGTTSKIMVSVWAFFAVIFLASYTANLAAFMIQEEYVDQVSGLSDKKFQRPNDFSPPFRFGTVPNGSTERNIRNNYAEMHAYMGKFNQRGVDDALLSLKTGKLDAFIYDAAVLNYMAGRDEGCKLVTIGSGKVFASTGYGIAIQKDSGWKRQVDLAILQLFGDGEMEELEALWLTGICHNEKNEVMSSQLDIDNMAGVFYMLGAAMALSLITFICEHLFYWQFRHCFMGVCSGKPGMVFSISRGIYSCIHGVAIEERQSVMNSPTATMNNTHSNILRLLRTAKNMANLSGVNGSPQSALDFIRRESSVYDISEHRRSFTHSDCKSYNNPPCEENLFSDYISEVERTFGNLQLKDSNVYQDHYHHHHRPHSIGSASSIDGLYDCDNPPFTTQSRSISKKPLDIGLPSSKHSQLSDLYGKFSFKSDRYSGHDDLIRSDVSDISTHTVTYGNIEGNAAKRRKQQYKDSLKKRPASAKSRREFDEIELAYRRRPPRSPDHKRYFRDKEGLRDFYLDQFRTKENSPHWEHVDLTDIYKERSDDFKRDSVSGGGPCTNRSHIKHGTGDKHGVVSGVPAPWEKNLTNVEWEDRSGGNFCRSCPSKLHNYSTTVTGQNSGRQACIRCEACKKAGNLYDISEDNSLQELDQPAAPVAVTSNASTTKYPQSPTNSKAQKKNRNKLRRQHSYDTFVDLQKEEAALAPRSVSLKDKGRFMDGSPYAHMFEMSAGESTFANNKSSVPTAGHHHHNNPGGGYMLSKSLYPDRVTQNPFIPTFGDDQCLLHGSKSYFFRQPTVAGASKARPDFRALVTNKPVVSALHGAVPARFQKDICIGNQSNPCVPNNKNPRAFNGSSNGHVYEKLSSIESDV

`O/N=C/c1cc[n+](COC[n+]2ccc(/C=N/O)cc2)cc1` [Obidoxime, reference compound] returned a Papp in “in vitro” of 14.3 ± 0.52 ×10⁻⁶ cm/s. In addition, the “CNS (+/−)” value with hCMEC/D3 cell monolayer (setting [3]) was “CNS −”.

As for `CCN(CC)C1c2ccccc2-c2ccccc21` [Compound 3i, N,N-Diethyl-9H-fluoren-9-amine hydrochloride], the 50% inhibitory concentration (IC50) at hBChE (setting [4]) is 5.38 ± 0.11 µM. The values for the inhibition at 10 µM on GluN1/GluN2A receptors and at GluN1/GluN2B receptors were 25.7 ± 1.92% and 20.1 ± 2.82%, respectively. For the same compound, in series [1], the 50% inhibitory concentration (IC50) at 24 h was 266 ± 3 µM.

On to `CNC1c2ccccc2-c2ccccc21` [Compound 3b, N-Methyl-9H-fluoren-9-amine hydrochloride], for which the IC50 on hBChE (setting [4]) was 8.91 ± 0.31 µM. For the same compound, the inhibition at 10 µM at GluN1/GluN2A receptors amounted to 36.2 ± 2.16%; on GluN1/GluN2B receptors it was 18 ± 0.78%. In addition, the IC50 at 24 h in series [1] was 427 ± 12 µM.

`CN1CCN(C2c3ccccc3-c3ccccc32)CC1` [Compound 3j, 1-(9H-fluorene-9-yl)-4-methylpiperazine dihydrochloride] registered a half-maximal inhibitory concentration (IC50) on hBChE of 23.5 ± 0.8 µM. The results for the inhibition at 10 µM on GluN1/GluN2A receptors and on GluN1/GluN2B receptors were 29.1 ± 2.85% and 21.9 ± 2.1%, respectively. The half-maximal inhibitory concentration (IC50) at 24 h in series [1] worked out at 259 ± 12 µM.

With `c1ccc2c(c1)-c1ccccc1C2N1CCCCC1` [Compound 3f, 1-(9H-fluoren-9-yl)piperidine hydrochloride], the 50% inhibitory concentration (IC50) at hBChE (setting [4]) turned out to be 2.13 ± 0.06 µM. For the same compound, the inhibition at 10 µM on GluN1/GluN2A receptors was determined as 33 ± 1.96%; at GluN1/GluN2B receptors, 19.4 ± 2.65%. For the same compound, the IC50 at 24 h in series [1] worked out at 872 ± 10 µM.

Regarding `CCN1CCN(C2c3ccccc3-c3ccccc32)CC1` [Compound 3k, 1-(9H-fluorene-9-yl)-4-ethylpiperazine dihydrochloride], the IC50 at hBChE (setting [4]) was 12.8 ± 0.3 µM. Further, the inhibition at 10 µM worked out at 32.1 ± 1.01% at GluN1/GluN2A receptors and 19.1 ± 1.48% at GluN1/GluN2B receptors. Moreover, in series [1], the IC50 at 24 h amounted to 239 ± 35 µM.

`CC(C)NCC(O)COc1cccc2ccccc12` (stereo not drawn) [Propranolol, reference compound] showed a Papp in “in vitro” of 23.1 ± 2.06 ×10⁻⁶ cm/s. Moreover, the “CNS (+/−)” value with hCMEC/D3 cell monolayer (setting [3]) is “CNS +”.

As for `c1ccc2c(c1)-c1ccccc1C2N1CCCC1` [Compound 3o, 1-(9H-fluoren-9-yl)pyrrolidine hydrochloride], the concentration for half-maximal inhibition (IC50) on hBChE (setting [4]) was 1.8 ± 0.06 µM. Also, the values for the inhibition at 10 µM at GluN1/GluN2A receptors and on GluN1/GluN2B receptors were 27.8 ± 1.74% and 32.4 ± 2.99%, respectively. The concentration for half-maximal inhibition (IC50) at 24 h in series [1] was 413 ± 15 µM.

With `CC12CC3CC(C)(C1)CC(N)(C3)C2` [Memantine, memantine, reference compound], at GluN1/GluN2A receptors, the “h 40 mV GluN1/GluN2A (Hill coefficient)” value worked out at 1.16 ± 0.05 and the “h −60 mV GluN1/GluN2A (Hill coefficient)” value worked out at 1.04 ± 0.06. Further, on GluN1/GluN2B receptors, the “h 40 mV GluN1/GluN2B (Hill coefficient)” value stood at 0.84 ± 0.04 and the “h −60 mV GluN1/GluN2B (Hill coefficient)” value is listed as 1.04 ± 0.03.

With `CC(C)NC1c2ccccc2-c2ccccc21` [Compound 3a, N-Propan-2-yl-9H-fluoren-9-amine hydrochloride], the inhibition at 10 µM on GluN1/GluN2A receptors is 33.3 ± 1.66%; on GluN1/GluN2B receptors it was 25 ± 1.82%. For the same compound, in series [1], the IC50 at 24 h is 387 ± 32 µM.

The compound `CCN(C)C(=O)Oc1cccc([C@H](C)N(C)C)c1` [Rivastigmine, reference compound] showed an apparent permeability (Papp) in “in vitro” of 28.6 ± 4.64 ×10⁻⁶ cm/s. Besides, the “CNS (+/−)” value in the series on hCMEC/D3 cell monolayer was “CNS +”.

In the case of `CCNC1c2ccccc2-c2ccccc21` [Compound 3h, N-Ethyl-9H-fluoren-9-amine hydrochloride], the IC50 at hBChE (setting [4]) turned out to be 6.58 ± 0.19 µM. In addition, the inhibition at 10 µM was 26.9 ± 2.14% at GluN1/GluN2A receptors and 17.5 ± 2.46% on GluN1/GluN2B receptors. The IC50 at 24 h in series [1] stood at 417 ± 16 µM.

As to `c1ccc2c(c1)-c1ccccc1C2NC1CC1` [Compound 3d, N-Cyclopropyl-9H-fluoren-9-amine hydrochloride], at hBChE (setting [4]), the IC50 is 6.42 ± 0.22 µM. For the same compound, the inhibition at 10 µM on GluN1/GluN2A receptors was 26.6 ± 0.85%; at GluN1/GluN2B receptors, 14.3 ± 0.35%. In addition, the IC50 at 24 h in series [1] came to 353 ± 32 µM.

On to `COCCNC1c2ccccc2-c2ccccc21` [Compound 3g, N-(2-methoxyethyl)-9H-fluoren-9-amine hydrochloride], for which the IC50 on hBChE (setting [4]) amounted to 2.56 ± 0.11 µM. For the same compound, the inhibition at 10 µM at GluN1/GluN2A receptors was 18.7 ± 1.98%; on GluN1/GluN2B receptors, 6.76 ± 1%. In addition, in series [1], the IC50 at 24 h stood at 738 ± 1 µM.

Consider `CC(C)CNC1c2ccccc2-c2ccccc21.Cl` [Compound 3n, N-(2-methylpropyl)-9H-fluoren-9-amine hydrochloride], for which the viability at 50 µM in series [2] (50 µM) is 98.2%. Further, the viability at 100 µM in series [2] (100 µM) was found to be 92.7%. For the same compound, the inhibition at 10 µM stood at 37.9 ± 2.43% at GluN1/GluN2A receptors and 49.7 ± 1.72% at GluN1/GluN2B receptors. In addition, the IC50 at 24 h in series [1] amounted to 236 ± 24 µM. In “in vitro”, this compound gave a Papp of 14.6 ± 1.88 ×10⁻⁶ cm/s. Moreover, the “potential of BBB permeation (in words)” value in the series on hCMEC/D3 cell monolayer (Papp correlated to reference drugs) was “low potential to passively pass the BBB”. Also, in the series on hCMEC/D3 cell monolayer (setting [3]), the “CNS (+/−)” value is given as “CNS −”.

Turning to `c1ccc2c(c1)-c1ccccc1C2N1CCOCC1` [Compound 3l, 4-(9H-fluorene-9-yl)morpholine hydrochloride], the IC50 at hBChE (setting [4]) was found to be 54.7 ± 1.9 µM. Also, the inhibition at 10 µM on GluN1/GluN2A receptors came out at 14.9 ± 1.76%; on GluN1/GluN2B receptors it was 11.6 ± 0.52%. For the same compound, the concentration for half-maximal inhibition (IC50) at 24 h in series [1] is greater than 800 µM.

Compound `Cc1cc(=O)n(-c2ccccc2)n1C` [Antipyrine, reference compound] gave an apparent permeability (Papp) in the series “in vitro” of 17.2 ± 1.82 ×10⁻⁶ cm/s. Moreover, the “CNS (+/−)” value with hCMEC/D3 cell monolayer (setting [3]) is listed as “CNS +”.

One may read the Papp as a coefficient for how fast a substance crosses the barrier. Lower therefore signals poor permeation. The IC50 is the concentration that inhibits the measured activity by half.
